Assay results from US8106055B2, “Substituted amide compounds” (Gruenenthal GmbH, priority 2007, dated 2012).
Where two headings read alike, the source gives them in different places.

Key:
[1] = target: T1, serotonin (5-HT) reuptake (Rattus norvegicus, UniProt P31652); experiment: Inhibition of serotonin (5HT) reuptake in synaptosomes from rat brain; type: biochemical; settings: test concentration of 10 μM; read-out: 5-HT (inhibition of reuptake of serotonin, % inhibition)
T1 construct: synaptosomes are freshly isolated from areas of the rat brain; from tissue; host or cells: rat brain synaptosomes (P2 fraction)
T1 sequence (P31652 whole entry): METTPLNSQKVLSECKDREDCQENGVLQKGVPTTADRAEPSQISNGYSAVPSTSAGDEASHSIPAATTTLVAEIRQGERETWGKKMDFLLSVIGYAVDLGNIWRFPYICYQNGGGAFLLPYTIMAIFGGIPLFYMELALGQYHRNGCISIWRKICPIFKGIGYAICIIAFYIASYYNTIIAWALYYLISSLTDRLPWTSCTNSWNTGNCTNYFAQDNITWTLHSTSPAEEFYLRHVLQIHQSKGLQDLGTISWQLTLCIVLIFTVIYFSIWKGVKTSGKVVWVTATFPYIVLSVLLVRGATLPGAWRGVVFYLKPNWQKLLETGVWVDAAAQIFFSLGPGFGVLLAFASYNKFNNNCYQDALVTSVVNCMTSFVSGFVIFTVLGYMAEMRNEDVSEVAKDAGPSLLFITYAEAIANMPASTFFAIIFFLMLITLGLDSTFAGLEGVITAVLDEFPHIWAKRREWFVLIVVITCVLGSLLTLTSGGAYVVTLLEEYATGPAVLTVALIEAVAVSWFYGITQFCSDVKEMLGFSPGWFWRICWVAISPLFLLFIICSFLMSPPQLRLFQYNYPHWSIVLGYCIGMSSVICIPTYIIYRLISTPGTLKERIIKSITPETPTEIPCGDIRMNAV
Method in brief: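 Compounds screened at 10 μM and reported as percent inhibition of serotonin uptake. Uptake measured in a freshly prepared P2 synaptosomal fraction from rat brain.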

[2] = target: T2, bradykinin 1 receptor (B1R) of the rat (Rattus norvegicus, UniProt P97583); experiment: Functional investigation on the rat bradykinin 1 receptor (B1R), Ca2+ FLIPR assay in CHO K1 rB1R cells; type: cell-based
T2 construct: expressed in transfected cells; host or cells: CHO K1 cells
T2 sequence (P97583 1-337): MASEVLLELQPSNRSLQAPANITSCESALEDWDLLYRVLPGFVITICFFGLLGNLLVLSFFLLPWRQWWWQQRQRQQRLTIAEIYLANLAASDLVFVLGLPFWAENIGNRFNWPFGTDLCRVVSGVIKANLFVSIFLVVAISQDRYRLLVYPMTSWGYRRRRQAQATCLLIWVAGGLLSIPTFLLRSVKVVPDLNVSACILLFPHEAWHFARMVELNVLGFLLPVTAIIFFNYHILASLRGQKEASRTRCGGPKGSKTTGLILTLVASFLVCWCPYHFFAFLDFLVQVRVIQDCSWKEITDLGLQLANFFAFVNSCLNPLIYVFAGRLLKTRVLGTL
Method in brief: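 Fluo-4 Ca2+ readout, peak fluorescence. Stable CHO K1 transfectants; compound pre-incubated 10-20 min, then EC80 agonist—Lys-Des-Arg9-BK for hB1R, Des-Arg9-BK for rB1R. % inhibition vs maximal inhibition; IC50 from multiple concentrations, duplicate/triplicate, ≥2 independent runs.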

[3] = CHO-K1, B1R antagonism rat, test substance 10 μM, Ca2+ FLIPR, CHO K1 rB1R cells, read-out: B1R Ant. r [10 μM] % Inhibition

Question: What does the source list for `COc1cc(C)c(S(=O)(=O)N2CCC(OCC(=O)NCC3CCC(C(c4cccs4)N(C)C)CC3)C2)c(C)c1C` (stereo not shown) [Example 58, N-((4-((dimethylamino)(thiophen-2-yl)methyl)cyclohexyl)methyl)-2-(1-(4-methoxy-2,3,6-trimethylphenylsulfonyl)pyrrolidin-3-yloxy)acetamide]?
Answer: inhibition at 10 µM [1]: 94%; inhibition at 10 µM [2, 3]: 5%

Question: `CCN(CCOCC(=O)NC1CCC(C(c2cccs2)N(C)C)CC1)S(=O)(=O)c1c(C)cc(OC)c(C)c1C` (stereo not shown) [Example 59, N-(4-((dimethylamino)(thiophen-2-yl)methyl)cyclohexyl)-2-(2-(N-ethyl-4-methoxy-2,3,6-trimethylphenylsulfonamido)ethoxy)acetamide] was tested. Which inhibition at 10 µM [1] did it give?
Answer: 92%

Question: What about the inhibition at 10 µM [2, 3] of the same molecule?
Answer: 70%

Question: What does the source list for `COc1cc(C)c(S(=O)(=O)N2CCCC(OCC(=O)NCC3CCC(C(c4cccs4)N(C)C)CC3)C2)c(C)c1C` (stereo not shown) [Example 60, N-((4-((dimethylamino)(thiophen-2-yl)methyl)cyclohexyl)methyl)-2-(1-(4-methoxy-2,3,6-trimethylphenylsulfonyl)piperidin-3-yloxy)acetamide]?
Answer: inhibition at 10 µM [1]: 92%; inhibition at 10 µM [2, 3]: 11%

Question: `COc1cc(C)c(S(=O)(=O)N2CCN(CCOCC(=O)NCC3CCC(C(c4ccccc4)N(C)C)CC3)CC2)c(C)c1C` (stereo not shown) [Example 61, N-((4-((dimethylamino)(phenyl)methyl)cyclohexyl)methyl)-2-(2-(4-(4-methoxy-2,3,6-trimethylphenylsulfonyl)piperazin-1-yl)ethoxy)acetamide] was tested. Which inhibition at 10 µM [1] did it give?
Answer: 95%

Question: And the inhibition at 10 µM [2, 3]?
Answer: 25%

Question: Which results are given for `COc1ccc(S(=O)(=O)N2CCCCC2CCOCC(=O)NC2CCC(C(c3cccc(F)c3)N(C)C)CC2)cc1` (stereo not shown) [Example 62, N-(4-((dimethylamino)(3-fluorophenyl)methyl)cyclohexyl)-2-(2-(1-(4-methoxyphenylsulfonyl)piperidin-2-yl)ethoxy)acetamide]?
Answer: inhibition at 10 µM [1]: 96%; inhibition at 10 µM [2, 3]: 32%

Question: What does the source list for `Cc1cc(C)c(S(=O)(=O)N2CCC(OCC(=O)NC3CCC(C(c4ccccc4)N(C)C)CC3)C2)c(C)c1` (stereo not shown) [Example 64, N-(4-((dimethylamino)(phenyl)methyl)cyclohexyl)-2-(1-(mesitylsulfonyl)pyrrolidin-3-yloxy)acetamide]?
Answer: inhibition at 10 µM [1]: 83%; inhibition at 10 µM [2, 3]: 16%

Question: What does the source list for `CN(C)C(c1cccs1)C1CCC(CCNC(=O)COCCN(C)S(=O)(=O)c2ccc(OC(F)(F)F)cc2)CC1` (stereo not shown) [Example 65, N-(2-(4-((dimethylamino)(thiophen-2-yl)methyl)cyclohexyl)ethyl)-2-(2-(N-methyl-4-(trifluoromethoxy)phenylsulfonamido)ethoxy)acetamide]?
Answer: inhibition at 10 µM [1]: 95%; inhibition at 10 µM [2, 3]: 18%

Question: With `CN(C)C(c1cccs1)C1CCC(CCNC(=O)COC2CCN(S(=O)(=O)c3ccc(Cl)cc3)C2)CC1` (stereo not shown) [Example 66, 2-(1-(4-chlorophenylsulfonyl)pyrrolidin-3-yloxy)-N-(2-(4-((dimethylamino)(thiophen-2-yl)methyl)cyclohexyl)ethyl)acetamide] as the molecule, how does the inhibition at 10 µM [1] read?
Answer: 85%

Question: What about the inhibition at 10 µM [2, 3] of the same molecule?
Answer: 30%

Question: Which results are given for `CN(C)C(c1ccccc1)C1CCC(CNC(=O)COC2CCN(S(=O)(=O)c3ccc(Cl)cc3Cl)C2)CC1` (stereo not shown) [Example 67, 2-(1-(2,4-dichlorophenylsulfonyl)pyrrolidin-3-yloxy)-N-((4-((dimethylamino)(phenyl)methyl)cyclohexyl)methyl)acetamide]?
Answer: inhibition at 10 µM [1]: 87%; inhibition at 10 µM ([2]; CHO-K1, read-out: B1R Ant. r [10 μM] % Inhibition): 46%

Question: Which results are given for `Cc1ccc(S(=O)(=O)N2CCC(OCC(=O)NCC3CCC(C(c4cccs4)N(C)C)CC3)C2)cc1` (stereo not shown) [Example 68, N-((4-((dimethylamino)(thiophen-2-yl)methyl)cyclohexyl)methyl)-2-(1-tosylpyrrolidin-3-yloxy)acetamide]?
Answer: inhibition at 10 µM [1]: 82%; inhibition at 10 µM [2, 3]: 39%

Question: For `COc1cc(C)c(S(=O)(=O)N(C)CCOCC(=O)NCC2CCC(C(c3cccs3)N(C)C)CC2)c(C)c1` (stereo not shown) [Example 69, N-((4-((dimethylamino)(thiophen-2-yl)methyl)cyclohexyl)methyl)-2-(2-(4-methoxy-N,2,6-trimethylphenylsulfonamido)ethoxy)acetamide], which inhibition at 10 µM [1] is on record?
Answer: 86%

Question: And the inhibition at 10 µM [2, 3]?
Answer: 100%

Question: Which inhibition at 10 µM [1] does the source give for `CN(C)C(c1cccc(F)c1)C1CCC(CNC(=O)COCCN(C)S(=O)(=O)c2ccc(Cl)cc2Cl)CC1` (stereo not shown) [Example 70, 2-(2-(2,4-dichloro-N-methylphenylsulfonamido)ethoxy)-N-((4-((dimethylamino)(3-fluorophenyl)methyl)cyclohexyl)methyl)acetamide] here?
Answer: 86%

Question: What about the inhibition at 10 µM [2, 3] of the same molecule?
Answer: 31%

Question: Which results are given for `Cc1cc(C)c(S(=O)(=O)N2CCC(OCC(=O)NCCC3CCC(C(c4cccs4)N(C)C)CC3)C2)c(C)c1` (stereo not shown) [Example 71, N-(2-(4-((dimethylamino)(thiophen-2-yl)methyl)cyclohexyl)ethyl)-2-(1-(mesitylsulfonyl)pyrrolidin-3-yloxy)acetamide]?
Answer: inhibition at 10 µM [1]: 79%; inhibition at 10 µM [2, 3]: 54%

Question: For `CN(C)C(c1cccc(F)c1)C1CCC(CNC(=O)COCCN(C)S(=O)(=O)c2c(Cl)cccc2Cl)CC1` (stereo not shown) [Example 72, 2-(2-(2,6-dichloro-N-methylphenylsulfonamido)ethoxy)-N-((4-((dimethylamino)(3-fluorophenyl)methyl)cyclohexyl)methyl)acetamide], which inhibition at 10 µM [1] is on record?
Answer: 84%

Question: And the inhibition at 10 µM [2, 3]?
Answer: 38%

Question: `COc1ccc(S(=O)(=O)N(C)CCOCC(=O)NC2CCC(C(c3cccs3)N(C)C)CC2)cc1` (stereo not shown) [Example 73, N-(4-((dimethylamino)(thiophen-2-yl)methyl)cyclohexyl)-2-(2-(4-methoxy-N-methylphenylsulfonamido)ethoxy)acetamide] was tested. Which inhibition at 10 µM [1] did it give?
Answer: 77%

Question: And the inhibition at 10 µM [2, 3]?
Answer: 29%

Question: With `COc1cc(C)c(S(=O)(=O)N2CCC(OCC(=O)NCCC3CCC(C(c4cccs4)N(C)C)CC3)C2)c(C)c1C` (stereo not shown) [Example 74, N-(2-(4-((dimethylamino)(thiophen-2-yl)methyl)cyclohexyl)ethyl)-2-(1-(4-methoxy-2,3,6-trimethylphenylsulfonyl)pyrrolidin-3-yloxy)acetamide] as the molecule, how does the inhibition at 10 µM [1] read?
Answer: 98%

Question: And the inhibition at 10 µM [2, 3]?
Answer: 27%

Question: Which results are given for `COc1cc(C)c(S(=O)(=O)N2CCC(CCOCC(=O)NCCC3CCC(C(c4cccs4)N(C)C)CC3)CC2)c(C)c1C` (stereo not shown) [Example 75, N-(2-(4-((dimethylamino)(thiophen-2-yl)methyl)cyclohexyl)ethyl)-2-(2-(1-(4-methoxy-2,3,6-trimethylphenylsulfonyl)piperidin-4-yl)ethoxy)acetamide]?
Answer: inhibition at 10 µM [1]: 96%; inhibition at 10 µM [2, 3]: 15%

Question: What does the source list for `COc1cc(C)c(S(=O)(=O)N2CCN(CCOCC(=O)NC3CCC(C(c4cccc(F)c4)N(C)C)CC3)CC2)c(C)c1C` (stereo not shown) [Example 76, N-(4-((dimethylamino)(3-fluorophenyl)methyl)cyclohexyl)-2-(2-(4-(4-methoxy-2,3,6-trimethylphenylsulfonyl)piperazin-1-yl)ethoxy)acetamide]?
Answer: inhibition at 10 µM [1]: 96%; inhibition at 10 µM [2, 3]: -7%

Question: For `COc1ccc(S(=O)(=O)N2CCCC2COCC(=O)NCCC2CCC(C(c3cccs3)N(C)C)CC2)cc1` (stereo not shown) [Example 77, N-(2-(4-((dimethylamino)(thiophen-2-yl)methyl)cyclohexyl)ethyl)-2-((1-(4-methoxyphenylsulfonyl)pyrrolidin-2-yl)methoxy)acetamide], which inhibition at 10 µM [1] is on record?
Answer: 98%

Question: What about the inhibition at 10 µM [2, 3] of the same molecule?
Answer: 44%

Question: How did the inhibition at 10 µM [1] turn out when `CN(C)C(c1ccccc1)C1CCC(CNC(=O)COC2CCCCC2N(C)S(=O)(=O)c2ccc(Cl)c(Cl)c2)CC1` (stereo not shown) [Example 78, 2-(2-(3,4-dichloro-N-methylphenylsulfonamido)cyclohexyloxy)-N-((4-((dimethylamino)(phenyl)methyl)cyclohexyl)methyl)acetamide] was run?
Answer: 86%

Question: And the inhibition at 10 µM [2, 3]?
Answer: 2%

Question: Which results are given for `COc1cc(C)c(S(=O)(=O)N(C)CCOCC(=O)NC2CCC(C(c3ccccc3)N(C)C)CC2)c(C)c1C` (stereo not shown) [Example 80, N-(4-((dimethylamino) (phenyl)methyl)cyclohexyl)-2-(2-(4-methoxy-N,2,3,6-tetramethylphenylsulfonamido)ethoxy)acetamide]?
Answer: inhibition at 10 µM [1]: 84%; B1R Ant. r [10 μM] % Inhibition ([2]; B1R antagonism rat, test substance 10 μM, Ca2+ FLIPR, CHO K1 rB1R cells): 6%

Question: Which inhibition at 10 µM [1] does the source give for `CN(C)C(c1ccccc1)C1CCC(CNC(=O)COC2CCN(S(=O)(=O)c3ccc(Cl)cc3)C2)CC1` (stereo not shown) [Example 81, 2-(1-(4-chlorophenylsulfonyl)pyrrolidin-3-yloxy)-N-((4-((dimethylamino)(phenyl)methyl)cyclohexyl)methyl)acetamide] here?
Answer: 91%

Question: What about the inhibition at 10 µM [2, 3] of the same molecule?
Answer: 5%

Question: Which inhibition at 10 µM [1] does the source give for `Cc1ccc(S(=O)(=O)N(C)CCOCC(=O)NCCC2CCC(C(c3cccs3)N(C)C)CC2)cc1` (stereo not shown) [Example 82, N-(2-(4-((dimethylamino)(thiophen-2-yl)methyl)cyclohexyl)ethyl)-2-(2-(N,4-dimethylphenylsulfonamido)ethoxy)acetamide] here?
Answer: 85%

Question: What about the inhibition at 10 µM [2, 3] of the same molecule?
Answer: -1%
